In the supplement of paper PMC4862054:

Legend:
Conditions in all cases: incubation time: 72 h
HCC1599 [1] = experiment: normalised response (% of control), CellTox Green; higher = less cell death (100 = DMSO, 0 = benzethonium chloride kill control)
Method in brief: (§1)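 Breast cancer cell lines, seeded at 20 µl suspension per well, were incubated for 72 h in 384-well plates containing compound at 5 concentrations. These concentrations rose in 10-fold steps over a 10,000-fold range set for each compound. CellTox Green fluorescence (485/520 nm) was read, then CellTiter-Glo luminescence after 10 min at room temperature, and each plate was normalised to 0.1 % DMSO (100) and a positive kill control (0). Values are normalised signals, each at one concentration.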

BT-549 [2] = experiment: as above
Method in brief: as §1

CAL-148 [3] = experiment: as above
Method in brief: as §1

MDA-MB-231 [4] = experiment: as above
Method in brief: as §1

CAL-51 [5] = experiment: as above
Method in brief: as §1

Hs578T [6] = experiment: as above
Method in brief: as §1

HCC1937 [7] = experiment: as above
Method in brief: as §1

CAL-85-1 [8] = experiment: as above
Method in brief: as §1

MFM-223 [9] = experiment: as above
Method in brief: as §1

BT-474 [10] = experiment: as above
Method in brief: as §1

DU-4475 [11] = experiment: as above
Method in brief: as §1

MCF-10A [12] = experiment: as above
Method in brief: as §1

CAL-120 [13] = experiment: as above
Method in brief: as §1

MDA-MB-468 [14] = experiment: as above
Method in brief: as §1

HDQ-P1 [15] = experiment: as above
Method in brief: as §1

HCC1143 [16] = experiment: as above
Method in brief: as §1

MDA-MB-436 [17] = experiment: as above
Method in brief: as §1

MDA-MB-453 [18] = experiment: as above
Method in brief: as §1

HCC1599 [19] = experiment: normalised response (% of control), CellTiter-Glo; higher = more viable cells (100 = DMSO, 0 = benzethonium chloride kill control)
Method in brief: as §1

BT-549 [20] = experiment: as above
Method in brief: as §1

CAL-148 [21] = experiment: as above
Method in brief: as §1

MDA-MB-231 [22] = experiment: as above
Method in brief: as §1

CAL-51 [23] = experiment: as above
Method in brief: as §1

Hs578T [24] = experiment: as above
Method in brief: as §1

HCC1937 [25] = experiment: as above
Method in brief: as §1

CAL-85-1 [26] = experiment: as above
Method in brief: as §1

SK-BR-3 = experiment: as above
Method in brief: as §1

MFM-223 [27] = experiment: as above
Method in brief: as §1

BT-474 [28] = experiment: as above
Method in brief: as §1

DU-4475 [29] = experiment: as above
Method in brief: as §1

MCF-10A [30] = experiment: as above
Method in brief: as §1

CAL-120 [31] = experiment: as above
Method in brief: as §1

MDA-MB-468 [32] = experiment: as above
Method in brief: as §1

HDQ-P1 [33] = experiment: as above
Method in brief: as §1

HCC1143 [34] = experiment: as above
Method in brief: as §1

MDA-MB-436 [35] = experiment: as above
Method in brief: as §1

MDA-MB-453 [36] = experiment: as above
Method in brief: as §1

Row | SMILES | normalised response (HCC1599 [1]) [%] | normalised response (BT-549 [2]) [%] | normalised response (CAL-148 [3]) [%] | normalised response (MDA-MB-231 [4]) [%] | normalised response (CAL-51 [5]) [%] | normalised response (Hs578T [6]) [%] | normalised response (HCC1937 [7]) [%] | normalised response (CAL-85-1 [8]) [%] | normalised response (MFM-223 [9]) [%] | normalised response (BT-474 [10]) [%] | normalised response (DU-4475 [11]) [%] | normalised response (MCF-10A [12]) [%] | normalised response (CAL-120 [13]) [%] | normalised response (MDA-MB-468 [14]) [%] | normalised response (HDQ-P1 [15]) [%] | normalised response (HCC1143 [16]) [%] | normalised response (MDA-MB-436 [17]) [%] | normalised response (MDA-MB-453 [18]) [%] | normalised response (HCC1599 [19]) [%] | normalised response (BT-549 [20]) [%] | normalised response (CAL-148 [21]) [%] | normalised response (MDA-MB-231 [22]) [%] | normalised response (CAL-51 [23]) [%] | normalised response (Hs578T [24]) [%] | normalised response (HCC1937 [25]) [%] | normalised response (CAL-85-1 [26]) [%] | normalised response (SK-BR-3) [%] | normalised response (MFM-223 [27]) [%] | normalised response (BT-474 [28]) [%] | normalised response (DU-4475 [29]) [%] | normalised response (MCF-10A [30]) [%] | normalised response (CAL-120 [31]) [%] | normalised response (MDA-MB-468 [32]) [%] | normalised response (HDQ-P1 [33]) [%] | normalised response (HCC1143 [34]) [%] | normalised response (MDA-MB-436 [35]) [%] | normalised response (MDA-MB-453 [36]) [%]
1 | COc1ccc(-c2ccc3c(N4CCOC[C@@H]4C)nc(N4CCOC[C@@H]4C)nc3n2)cc1CO [AZD8055] (1000 nM) | 94.2 | 116 | 39.6 | 87.4 | 80.1 | 102 | 56.8 | 87.8 | 93.6 | 86.1 | 83.3 | 91.7 | 96 | 118 | 103 | 74.1 | 92.4 | 104 | 67.2 | 21.5 | 13.9 | 36.5 | 20.3 | 29.4 | 45.7 | 25.3 | 20.3 | 27.6 | 46.6 | 23.2 | 27.8 | 18 | 23.6 | 32.3 | 24.2 | 45.8 | 31.3
2 | CC(C)c1c(C(=O)Nc2ccccc2)c(-c2ccccc2)c(-c2ccc(F)cc2)n1CC[C@@H](O)C[C@@H](O)CC(=O)O [Atorvastatin] (1000 nM) | 100 | 97.4 | 103 | 34 | – | 97.4 | 88.3 | 110 | 89.4 | 99.9 | 101 | 83.6 | 98.2 | 87.3 | 103 | 114 | 96.6 | 94.1 | 95.6 | 95.6 | 105 | 59.1 | 90.2 | 101 | 96.6 | 91.9 | 102 | 99.1 | 66.1 | 99.9 | 84 | 90.5 | 93.2 | 74.8 | 93.4 | 92.6 | 99.4
3 | CNNCc1ccc(C(=O)NC(C)C)cc1 [Procarbazine] (1000 nM) | 95 | 107 | 104 | 104 | 103 | 101 | 105 | 95.4 | – | 101 | 104 | 107 | 106 | 84 | 104 | 123 | 98 | 70.8 | 101 | 98.7 | 104 | 107 | 78.5 | 109 | 105 | 102 | 110 | 101 | 98.1 | 94.8 | 105 | 102 | 105 | 103 | 104 | 104 | 100
4 | O=C1NC(=O)[C@@H](c2cn3c4c(cccc24)CCC3)[C@@H]1c1c[nH]c2ccccc12 [Tivantinib] (100 nM) | 85.6 | 106 | – | 110 | 103 | 75 | 100 | 93.4 | 89.4 | 94.2 | 98.7 | 113 | 97.9 | 116 | – | 60.7 | 91.5 | 104 | 127 | 92.4 | 96.9 | 99.2 | 115 | 94.6 | 94.6 | 89.5 | 92 | 99 | 106 | 96.5 | 97.7 | 103 | 96.1 | 105 | 93.9 | 98 | 77.3
5 | Nc1ncnc2c1c(COc1cccc(Cl)c1)nn2C1CCOCC1 (1000 nM) | 74.4 | 96.5 | 105 | 115 | 118 | 104 | 124 | 108 | 103 | 98.3 | 108 | – | 103 | 99.3 | 114 | 119 | 107 | 110 | 113 | 88.6 | 102 | 104 | 105 | 97.1 | 103 | 93.4 | 107 | 104 | 104 | 102 | 104 | 111 | 96.6 | 107 | 104 | 106 | 103
